According to US6043285A, “Use of p-aminophenol derivatives for the preparation of pharmaceutical compositions useful in the treatment of neurodegenerative diseases” (Angelini Ricerche S.p.A. Societa'Consortile, priority 1996, dated 2000):
Like-named read-outs stand apart in the source and are kept apart here.

Key:
[1] = test system: factor 3 of the complement (C3) production in T98G cell line; experiment: Complement factor C3 secretion in the T98G cell line; format: cell-based, human; conditions: for reducing secretion of factors of the complement (in words): T98G cells
Experimental: The effect of paracetamol on the production of complement factors has been studied using the human glioblastoma T98G cell line. The said line is in fact capable of constitutively producing factor 3 of the complement (C3) and this synthesis is further increased in the presence of various stimuli such as interleukin-1 beta (IL-1β). Indomethacin has been used as the reference drug.
(§1) The cells (2×10^6 /ml) were incubated for 48 hours in the presence of increasing concentrations of paracetamol (10-100-500-1000 μM) or indomethacin (0, 1-1-10 μM) both in the presence and in the absence of IL-1β (50 U/ml). On completion of incubation, the culture medium was harvested and the quantity of C3 secreted by the cells in the various conditions was measured. C3 was assayed in a sandwich-type immunoenzymatic test, in which two anti-C3 antibodies of different species were used as well as an antiserum labeled with an alkaline phosphatase specific for one of the two anti-C3 antibodies. The secreted C3 was quantified using a standard curve prepared on the basis of purified C3.

[2] = test system: interleukin-6 (IL-6) production in T98G cell line; experiment: IL-6 production in the T98G cell line stimulated with β-amyloid; format: cell-based, human
Experimental: The effect of paracetamol on the production of IL-6 was studied using the human cell line glioblastoma T98G. The said line is in fact capable of constitutively producing IL-6 and this synthesis is augmented in the presence of aggregated β-amyloid. Indomethacin was used as the reference drug.
The cells (2×10^6 /ml) were incubated for 48 hours in the presence of increasing concentrations of paracetamol (10-1000 μM) or indomethacin (0.1-10 μM) in the presence of β-amyloid (50 μM) aggregated by incubation at 37° C. for 6 days. At the end of the experiment the culture medium was harvested and the quantity of IL-6 produced in the various conditions was assayed using a commercial immunoenzymatic kit (Biotrak IL-6, Amersham, UK).

[3] = test system: E2 prostaglandins production in T98G cell line; experiment: Prostaglandin E2 production in the T98G cell line stimulated with IL-1β; format: cell-based, human; conditions: IL-1β stimulated
Experimental: as §1
(§2) Parallel experiments were conducted in which the ability of paracetamol and indomethacin to inhibit the production of prostaglandins produced by the glioblastoma T98G cell line or by the J774.2 cellular macrophagic cell line was assessed.
The test with T98G cells stimulated with IL-1β was conducted as described in the previous Example 1. At the end of incubation the culture medium was harvested and the quantity of E2 prostaglandins present was measured. The prostaglandins were assayed by means of a commercially available immunoenzymatic test ([…]).

[4] = test system: prostaglandin E2 production in J774.2 macrophagic cells; experiment: Prostaglandin E2 production in the J774.2 macrophagic cell line stimulated with LPS; format: cell-based
Experimental: as §2
Parallel to the above experiment, J774.2 (2×10^6 /ml) macrophagic cells were stimulated with lipopolysaccharide (LPS) (1 μg/ml) for 12 hours. After 3 washes with physiological solution, the cells were incubated for 45 minutes together with increasing concentrations of paracetamol (0.1-100 μM) or indomethacin (0.01-1 μM). At the end of incubation the supernatants were harvested and the prostaglandin E2 content was measured using the previously described test.

T98G cell line = experiment: Toxicity in the T98G cellular system; format: cell-based, human; conditions: concentration above 10 μM not possible
[5] = test system: patients suffering from Alzheimer's disease; conditions: 44 patients, 6 months, in comparison with placebo; cited from earlier work
[6] = test system: T98G and J774.2 cell lines; experiment: Selectivity of action on the nervous system (Tables 1 to 4 as a whole); format: cell-based; conditions: contrary to indomethacin
Experimental: as §2

[7] = cited from earlier work
[8] = test system: onset of the Alzheimer disease; conditions: retrospective, subjects treated for pain and fever; cited from earlier work
[9] = low therapeutic doses from 0.5 to 1 g, 3 or 4 times a day; cited from earlier work
peripheral cycloxygenase = conditions: cited from earlier work
[10] = Homo sapiens, T98G, 48 h, read-out: Inhibition % of production of complement (C3)
[11] = Homo sapiens, T98G, 48 h, read-out: Inhibition % of production of IL-6
[12] = Mus musculus, J774.2, 0.75 h, read-out: Inhibition % of production of prostaglandins
[13] = Homo sapiens, T98G, 48 h, IL-1β stimulated (50 U/ml)
[14] = Homo sapiens, T98G, 48 h, not stimulated with IL-1β

Molecule `COc1ccc2c(c1)c(CC(=O)O)c(C)n2C(=O)c1ccc(Cl)cc1` [Indomethacin] has an inhibition at 0.1 µM [1, 10] of 26.9%, an inhibition at 1 µM [1, 10] of 21.7% and an inhibition at 10 µM [1, 10] of 35.1%. For the same molecule, the inhibition at 10 µM ([1]; Homo sapiens, T98G, read-out: inhibiting activity on secretion of the complement) was 35%, the “reducing secretion of factors of the complement (in words)” value (“reducing secretion” for short) [1] was “active in reducing the secretion of the complement” and the “reducing secretion” value ([1]; listed as indomethacin) was “capable of reducing secretion of factors of the complement”. For the same molecule, the inhibition at 0.1 µM [2, 11] was 21.1%, the inhibition at 1 µM [2, 11] was 17.6% and the inhibition at 10 µM [2, 11] was 11.5%. The inhibition at 0.1 µM ([3]; Homo sapiens, 0.1 μM) was 99.3%, the inhibition at 1 µM ([3]; Homo sapiens, 1 μM) was 98.4% and the inhibition at 10 µM ([3]; Homo sapiens) was 99.1%. The “inhibiting production of prostaglandins in glial cells (in words)” value [3] was “capable of inhibiting production of prostaglandins in the glial cells of the central nervous system in a significant manner”, the inhibition at 0.01 µM [4, 12] was 35.8% and the inhibition at 0.1 µM [4, 12] was 61.1%. For the same molecule, the inhibition at 1 µM [4, 12] was 87.4%, the “toxicity in the cellular system used” value (T98G cell line) was “because of its toxicity in the cellular system used, it was not possible to increase its concentration above 10 μM” and the progression of dementia [5] was “notable slowing of the progression of dementia”.
Molecule `CC(=O)Nc1ccc(O)cc1` [Paracetamol, N-acetyl-p-aminophenol] has an inhibition at 100 µM ([1]; Homo sapiens, T98G, 48 h, IL-1β stimulated (50 U/ml), 100 μM) of 23.6%, an inhibition at 500 µM [1, 13] of 39.8% and an inhibition at 1000 µM [1, 13] of 47.5%. For the same molecule, the inhibition at 10 µM ([1]; Homo sapiens, T98G, 48 h, IL-1β stimulated (50 U/ml), 48 hours, 10 μM, read-out: Inhibition % of production of complement (C3)) was 0.1%, the inhibition at 500 µM [1, 14] was 37.4% and the inhibition at 1000 µM [1, 14] was 60.8%. The IC50 ([1]; Homo sapiens, T98G, cells stimulated with interleukin-1 beta, read-out: Cl50 for secretion of C3) was roughly 1 mM, the “reducing secretion” value [1] was “capable of reducing secretion of factors of the complement” and the inhibition at 10 µM ([2]; Homo sapiens, T98G, β-amyloid stimulated (50 μM), 48 hours, 10 μM, read-out: Inhibition % of production of IL-6) was 11.4%. For the same molecule, the inhibition at 100 µM ([2]; Homo sapiens, T98G, β-amyloid stimulated (50 μM), 48 hours, 100 μM) was 6.7%, the inhibition at 500 µM ([2]; Homo sapiens, T98G, β-amyloid stimulated (50 μM), 48 hours, 500 μM) was 20.5% and the inhibition at 1000 µM ([2]; Homo sapiens, T98G, β-amyloid stimulated (50 μM), 48 hours, 1000 μM) was 41.2%. The IC50 ([2]; Homo sapiens, T98G, β-amyloid stimulated, read-out: Cl50 for production of IL-6) was greater than 1 mM, the “reducing the secretion of IL-6 (in words)” value ([2]; in the presence of β-amyloid) was “capable of reducing the secretion of IL-6” and the inhibition at 10 µM ([3]; Homo sapiens) was 26.7%. The inhibition at 100 µM ([3]; Homo sapiens, 100 μM) was 88.5%, the inhibition at 500 µM ([3]; Homo sapiens, 500 μM) was 96.9% and the inhibition at 1000 µM ([3]; Homo sapiens, 1000 μM) was 99%. The “inhibiting production of prostaglandins in glial cells (in words)” value [3] was “capable of inhibiting production of prostaglandins in the glial cells of the central nervous system in a significant manner”, the “inhibiting activity on production of prostaglandins in macrophages (in words)” value ([4]; J774.2, LPS stimulated) was “little inhibiting activity on production of prostaglandins in macrophages” and the inhibition at 0.1 µM ([4]; Mus musculus, 0.75 h, J774.2, LPS stimulated (1 μg/ml), 45 minutes, 0.1 μM, read-out: Inhibition % of production of prostaglandins) was 5.3%. It also gave an inhibition at 1 µM ([4]; Mus musculus, 0.75 h, J774.2, LPS stimulated (1 μg/ml), 45 minutes, 1 μM, read-out: Inhibition % of production of prostaglandins) of 6.4%, an inhibition at 10 µM ([4]; Mus musculus, 0.75 h, J774.2, LPS stimulated (1 μg/ml), 45 minutes, 10 μM, read-out: Inhibition % of production of prostaglandins) of 12.5% and an inhibition at 100 µM ([4]; Mus musculus, 0.75 h, J774.2, LPS stimulated (1 μg/ml), 45 minutes, 100 μM, read-out: Inhibition % of production of prostaglandins) of 11.4%. The “selectivity of action on the nervous system” value [6] was “peculiar selectivity of action on the nervous system”, the plasma concentration ([7]; after 6 hours, oral administration of 1 g) was “approximately 1.5 mg/l” and the tissue distribution ([7]; in words, including the brain) was “distributed evenly throughout the major part of the tissues of the organism, including the brain”. For the same molecule, the absorption ([7]; in words) was “rapidly absorbed”, the “tissue concentration relative to plasma” value ([7]; oral administration) was “substantially the same as the plasma concentration” and the plasma concentration ([7]; within a few minutes of oral administration of 1 g) was “approximately 10 mg/l”. The concentration ([7]; within a few minutes of oral administration of 1 g, read-out: plasma concentration) was roughly 66.2 µM, the “delay in the onset of the Alzheimer disease” value [8] was “negative” and the side effects [9] was “no significant side effects”. The tolerability [9] was “well tolerated” and the “action on peripheral cycloxygenase” value (peripheral cycloxygenase) was “absence of action on peripheral cycloxygenase”.
